Reference: patent US5039805A, “Novel benzoic and phenylacetic acid derivatives” (Hoffmann-La Roche Inc., priority 1988, dated 1991)
pIC50: −log10 of the molar value. Where a SMILES comes first, the peptide text is derived from it. [ ]: non-standard residue; d: D form. The star is where a group is joined. 3Abz = Nc1cccc(C(=O)O)c1; Boc = CC(C)(C)OC(=O)*

Tested on: not listed separately
Assay: LD50 in the mouse (acute toxicity)
Settings: in vivo, ip, intraperitoneally
Procedure: The compounds of formula I are non-toxic. Thus, the product of Example 10 has a LD50 of more than 1000 mg/kg intraperitoneally and more than 2000 mg/kg perorally in the mouse.

Row | Compound | LD50 [mg/kg]
1 | N=C(N)NCCCCCC(=O)Nc1cccc(C(=O)NCCC(=O)O)c1 [Example 10, N-[m-(6-guanidinohexanamido)benzoyl]-β-alanine] | > 1000

Same assay, conditions: in vivo, po, perorally

Row | Compound | LD50 [mg/kg]
2 | N=C(N)NCCCCCC(=O)Nc1cccc(C(=O)NCCC(=O)O)c1 [Example 10, N-[m-(6-guanidinohexanamido)benzoyl]-β-alanine] | > 2000

Molecular target: T1, fibrinogen receptor, glycoprotein IIb/IIIa (Homo sapiens, UniProt P05106+P08514)
T1 construct: obtained from Triton X-100 extracts of human blood platelets; from tissue
Assay: inhibition of the binding of fibrinogen to the immobilized fibrinogen receptor (ELISA)
Settings: fibrinogen binding to immobilized glycoprotein IIb/IIIa from human blood platelets, read-out: IC50 (inhibition of the binding of fibrinogen to the immobilized receptor by 50%)
Procedure: The glycoprotein IIb/IIIa is obtained from Triton X-100 extracts of human blood platelets and is purified by lectin affinity chromatography (Analytical Biochemistry 151, 1985, 169-177) and chromatography on an Arg-Gly-Asp-Ser affinity column (Science 231, 1986, 1559-62). The thus-obtained receptor protein is bonded to microtitre plates. The specific binding of fibrinogen to the immobilized receptor is determined with the aid of an ELISA system ("enzyme-linked immunosorbent assay"). The IC50 values hereinafter correspond to that concentration of the test substance which is required to inhibit the binding of fibrinogen to the immobilized receptor by 50%: […]

T1 sequence (P08514 32-887 limits assumed): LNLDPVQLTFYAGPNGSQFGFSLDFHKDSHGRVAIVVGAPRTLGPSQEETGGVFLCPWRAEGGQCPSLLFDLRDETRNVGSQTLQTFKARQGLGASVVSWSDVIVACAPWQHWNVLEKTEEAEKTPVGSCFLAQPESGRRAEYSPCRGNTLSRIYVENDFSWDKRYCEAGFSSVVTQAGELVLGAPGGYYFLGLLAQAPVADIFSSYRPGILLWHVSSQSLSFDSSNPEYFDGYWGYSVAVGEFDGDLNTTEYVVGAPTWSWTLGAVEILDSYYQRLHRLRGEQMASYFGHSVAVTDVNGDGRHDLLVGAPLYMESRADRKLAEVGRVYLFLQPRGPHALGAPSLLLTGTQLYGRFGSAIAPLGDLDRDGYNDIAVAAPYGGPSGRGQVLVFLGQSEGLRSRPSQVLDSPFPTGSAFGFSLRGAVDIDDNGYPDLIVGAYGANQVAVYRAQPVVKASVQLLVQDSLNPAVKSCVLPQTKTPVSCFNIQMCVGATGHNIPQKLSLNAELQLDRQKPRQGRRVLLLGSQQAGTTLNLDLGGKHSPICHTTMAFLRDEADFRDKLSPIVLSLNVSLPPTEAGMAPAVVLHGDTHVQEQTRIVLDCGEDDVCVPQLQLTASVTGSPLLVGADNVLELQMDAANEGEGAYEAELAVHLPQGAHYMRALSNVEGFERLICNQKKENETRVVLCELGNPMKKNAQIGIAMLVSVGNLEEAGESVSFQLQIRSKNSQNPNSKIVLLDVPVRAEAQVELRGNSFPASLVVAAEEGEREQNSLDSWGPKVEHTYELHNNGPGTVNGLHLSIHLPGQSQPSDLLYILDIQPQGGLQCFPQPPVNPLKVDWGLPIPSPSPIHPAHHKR
T1 sequence (P08514 891-1039 limits assumed): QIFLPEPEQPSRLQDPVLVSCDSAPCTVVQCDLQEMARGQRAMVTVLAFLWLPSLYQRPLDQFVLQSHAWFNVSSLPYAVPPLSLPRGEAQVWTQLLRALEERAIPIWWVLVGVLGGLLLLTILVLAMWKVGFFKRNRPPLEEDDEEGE
T1 sequence (P05106 27-788): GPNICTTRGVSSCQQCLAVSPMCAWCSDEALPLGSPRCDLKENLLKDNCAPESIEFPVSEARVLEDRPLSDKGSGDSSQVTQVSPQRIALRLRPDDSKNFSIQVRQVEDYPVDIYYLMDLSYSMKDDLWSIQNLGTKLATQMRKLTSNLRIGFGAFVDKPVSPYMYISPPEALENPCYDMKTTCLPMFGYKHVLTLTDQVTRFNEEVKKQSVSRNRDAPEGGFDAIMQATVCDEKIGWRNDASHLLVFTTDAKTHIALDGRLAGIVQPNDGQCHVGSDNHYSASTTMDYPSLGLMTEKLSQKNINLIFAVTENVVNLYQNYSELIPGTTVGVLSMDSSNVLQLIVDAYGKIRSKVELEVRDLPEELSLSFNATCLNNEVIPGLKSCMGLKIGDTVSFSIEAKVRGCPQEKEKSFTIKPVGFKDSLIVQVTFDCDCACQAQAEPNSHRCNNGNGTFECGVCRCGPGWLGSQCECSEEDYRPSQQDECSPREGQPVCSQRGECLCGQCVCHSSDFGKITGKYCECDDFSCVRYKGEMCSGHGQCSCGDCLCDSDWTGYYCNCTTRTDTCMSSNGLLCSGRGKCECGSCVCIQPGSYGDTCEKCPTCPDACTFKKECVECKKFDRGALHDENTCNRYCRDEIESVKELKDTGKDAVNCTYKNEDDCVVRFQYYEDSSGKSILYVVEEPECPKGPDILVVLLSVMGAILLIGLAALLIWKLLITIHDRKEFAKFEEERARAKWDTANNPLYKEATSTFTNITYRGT

Row | Compound | pIC50
3 | NCCCCC(=O)Nc1cccc(C(=O)NC(CC(=O)O)c2ccc3c(c2)CCC3)c1 (racemic) [Example 41, DL-N-[m-(5-aminovaleramido)benzoyl]-3-(5-indanyl)-β-alanine] | 6.55
4 | NCCCCCC(=O)Nc1cccc(C(=O)NCCC(=O)O)c1 [Example 5, N-[m-(6-aminohexanamido)benzoyl]-β-alanine] | 6.57
5 | NCc1ccc(C(=O)Nc2cccc(C(=O)NCCC(=O)O)c2)cc1 [Example 8, N-[m-(α-amino-p-toluamido)benzoyl]-β-alanine] | 6.80
6 | NCCCCC(=O)Nc1cccc(C(=O)NCCC(=O)O)c1 [Example 9, N-[m-(5-aminovaleramido)benzoyl]-β-alanine] | 6.62
7 | N=C(N)NCCCCCC(=O)Nc1cccc(C(=O)NCCC(=O)O)c1 [Example 10, N-[m-(6-guanidinohexanamido)benzoyl]-β-alanine] | 6.59
8 | N=C(N)NCc1ccc(C(=O)Nc2cccc(C(=O)NCCC(=O)O)c2)cc1 [Example 13, N-[m-(α-guanidino-p-toluamido)benzoyl]-β-alanine] | 6.66
9 | CC(C)[C@H](NC(=O)[C@H](CC(=O)O)NC(=O)c1cccc(NC(=O)[C@@H](N)CCCNC(=N)N)c1)C(=O)O [Example 14, N-[N-[m-(L-arginylamino)benzoyl]-L-α-aspartyl]-L-valine] (H-R[3Abz]DV-OH) | 6.52
10 | CC(C)[C@H](NC(=O)[C@H](CC(=O)O)NC(=O)c1cccc(NC(=O)[C@H](CCCN=C(N)N)NC(=O)OC(C)(C)C)c1)C(=O)O [Example 15, [m-(Boc-Arg-NH)benzoyl]-Asp-Val] (Boc-R[3Abz]DV-OH) | 7.10
11 | NCCCCCC(=O)Nc1ccc(Cl)c(C(=O)NCCC(=O)O)c1 [Example 17, N-[5-(6-aminohexanamido)-2-chlorobenzoyl]-β-alanine] | 6.42
12 | NCCCCCCC(=O)Nc1cccc(C(=O)NCCC(=O)O)c1 [Example 21, N-[m-(7-aminoheptanamido)benzoyl]-β-alanine] | 6.34
13 | N=C(N)NCCCCC(=O)Nc1cccc(C(=O)NCCC(=O)O)c1 [Example 22, N-[m-(5-guanidinovaleramido)benzoyl]-β-alanine] | 6.60
14 | N=C(N)NCCCC(=O)Nc1cccc(C(=O)NCCC(=O)O)c1 [Example 24, N-[m-(4-guanidinobutyramido)benzoyl]-β-alanine] | 6.42
15 | CC(C)(C)OC(=O)N[C@@H](CCCN)C(=O)Nc1cccc(C(=O)NCCC(=O)O)c1 [Example 28, N-[m-[[(S)-N2-(t-butoxycarbonyl)-L-ornithyl]amino]benzoyl]-β-alanine] | 6.85
16 | NCc1ccc(CC(=O)Nc2cccc(C(=O)NCCC(=O)O)c2)cc1 [Example 32, N-[m-[2-(α-amino-p-tolyl)acetamido]benzoyl]-β-alanine] | 6.92
17 | N=C(N)c1ccc(C(=O)Nc2cccc(C(=O)N[C@@H](CC(=O)O)C(=O)N[C@@H](Cc3cccc4ccccc34)C(=O)O)c2)cc1 [Example 34, N-[N-[m-(p-amidinobenzamido)benzoyl]-L-α-aspartyl]-3-(1-naphthyl)-L-alanine] | 7.34
18 | N=C(N)c1ccc(C(=O)Nc2cccc(C(=O)NCCC(=O)O)c2)cc1 [Example 35, N-[m-(p-amidinobenzamido)-benzoyl]-β-alanine] | 10.00
19 | N=C(N)NCC(=O)Nc1cccc(C(=O)NCCC(=O)O)c1 [Example 36, N-[m-[(N-amidinoglycyl)amino]benzoyl]-β-alanine] | 6.57
20 | NCCCCC(=O)Nc1ccc(OCc2ccccc2)c(C(=O)NCCC(=O)O)c1 [Example 46, N-[5-(5-aminovaleramido)-2-(benzyloxy)benzoyl]-β-alanine] | 6.82
21 | N=C(N)NCCCCC(=O)Nc1ccc(OCc2ccccc2)c(C(=O)NCCC(=O)O)c1 [Example 47, N-[2-(benzyloxy)-5-(5-guanidinovaleramido)benzoyl]-β-alanine] | 6.74
22 | N=C(N)c1ccc(C(=O)Nc2ccc(C(=O)NCCC(=O)O)cc2)cc1 [Example 51, N-[p-(p-amidinobenzamido)benzoyl]-β-alanine] | 7.77
23 | N=C(N)c1ccc(CC(=O)Nc2cccc(C(=O)NCCC(=O)O)c2)cc1 [Example 52, N-[m-[2-(p-amidinophenyl)acetamido]benzoyl]-β-alanine] | 6.85
24 | O=C(O)CCNC(=O)c1cccc(NC(=O)CCC2CCNCC2)c1 [Example 53, N-[m-[3-(4-piperidinyl)propionamido]benzoyl]-β-alanine] | 7.15
25 | N=C(N)c1ccc(C(=O)Nc2ccc(OCc3ccccc3)c(C(=O)NCCC(=O)O)c2)cc1 [Example 54, N-[5-(p-amidinobenzamido)-2-(benzyloxy)benzoyl]-β-alanine] | 8.00
26 | N=C(N)c1ccc(C(=O)Nc2cc(C(=O)NCCC(=O)O)ccc2OCc2ccccc2)cc1 [Example 55, N-[3-(p-amidinobenzamido)-4-(benzyloxy)benzoyl]-β-alanine] | 7.60
27 | N=C(N)c1ccc(C(=O)Nc2cc(C(=O)NCCC(=O)O)ccc2O)cc1 [Example 56, N-[3-(p-amidinobenzamido)-4-hydroxybenzoyl]-β-alanine] | 8.30
28 | COC(=O)[C@H](CC(=O)O)NC(=O)c1cccc(NC(=O)c2ccc(C(=N)N)cc2)c1 [Example 60, (S)-3-[m-(p-amidinobenzamido)benzamido]-3-(methoxycarbonyl)propionic acid] | 7.30
29 | N=C(N)N1CCC(C(=O)Nc2cccc(C(=O)N[C@@H](CC(=O)O)C(=O)N[C@@H](Cc3ccccc3)C(=O)O)c2)CC1 [Example 64, N-[N-[m-(1-amidino-4-piperidinecarboxamido)benzoyl]-L-α-aspartyl]-3-phenyl-L-alanine] | 6.66
30 | N=C(N)c1ccc(CC(=O)Nc2cccc(C(=O)N[C@@H](CC(=O)O)C(=O)N[C@@H](Cc3ccccc3)C(=O)O)c2)cc1 [Example 65, N-[N-[m-[2-(p-amidinophenyl)acetamido]benzoyl]-L-α-aspartyl]-3-phenyl-L-alanine] | 7.08
